Assay results reported in patent EP0729956B1, “Benzothiophene compounds, intermediates, compositions, and methods” (ELI LILLY AND COMPANY, priority 1995, dated 1996).
Structures can show the parent of a compound that is named as a salt. Where two headings read alike, the source gives them in different places.

Assays:
[1] = tested on: ovariectomized rats; assay: Serum cholesterol analysis (OVX rat, 4-day dosing); format: in vivo, Sprague Dawley rats
Excerpt: (§1) Seventy-five day old female Sprague Dawley rats (weight range of 200 to 225g) were obtained from Charles River Laboratories (Portage, MI). The animals were either bilaterally ovariectomized (OVX) or exposed to a Sham surgical procedure at Charles River Laboratories, and then shipped after one week. Upon arrival, they were housed in metal hanging cages in groups of 3 or 4 per cage and had ad libitum access to food (calcium content approximately 0.5%) and water for one week. Room temperature was maintained at 22.2° ± 1.7° C with a minimum relative humidity of 40%. The photoperiod in the room was 12 hours light and 12 hours dark.
(§2) After a one week acclimation period (therefore, two weeks post-OVX) daily dosing with test compound was initiated. 17a-ethynyl estradiol or the test compound were given orally, unless otherwise stated, as a suspension in 1% carboxymethylcellulose or dissolved in 20% cyclodextrin. Animals were dosed daily for 4 days. Following the dosing regimen, animals were weighed and anesthetized with a ketamine: Xylazine (2:1, V:V) mixture and a blood sample was collected by cardiac puncture. The animals were then sacrificed by asphyxiation with CO2, the uterus was removed through a midline incision, and a wet uterine weight was determined.
Blood samples were allowed to clot at room temperature for 2 hours, and serum was obtained following centrifugation for 10 minutes at 3000 rpm. Serum cholesterol was determined using a Boehringer Mannheim Diagnostics high performance cholesterol assay. Briefly the cholesterol was oxidized to cholest-4-en-3-one and hydrogen peroxide. The hydrogen peroxide was then reacted with phenol and 4-aminophenazone in the presence of peroxidase to produce a p-quinone imine dye, which was read spectrophotemetrically at 500 nm. Cholesterol concentration was then calculated against a standard curve. The entire assay was automated using a Biomek Automated Workstation.

[2] = tested on: ovariectomized test animals; assay: Osteoporosis Test Procedure (OVX rat, 35-day dosing, distal femur metaphysis X-ray image analysis); format: in vivo, Sprague Dawley rats; conditions: OVX rats, daily for 35 days; for Distal Femur Metaphysis (X-ray Image Analysis-Gray Score): mean ± SEM
Excerpt: as §1
Following the General Preparation Procedure, infra, the rats were treated daily for 35 days (6 rats per treatment group) and sacrificed by carbon dioxide asphyxiation on the 36th day. The 35 day time period was sufficient to allow maximal reduction in bone density, measured as described herein. At the time of sacrifice, the uteri were removed, dissected free of extraneous tissue, and the fluid contents were expelled before determination of wet weight in order to confirm estrogen deficiency associated with complete ovariectomy. […] The uteri were then placed in 10% neutral buffered formalin to allow for subsequent histological analysis.
The right femurs were excised and digitilized x-rays generated and analyzed by an image analysis program (NIH image) at the distal metaphysis. The proximal aspect of the tibiae from these animals were also scanned by quantitative computed tomography.
In accordance with the above procedures, compounds of the present invention and ethynyl estradiol (EE2) in 20% hydroxypropyl b-cyclodextrin were orally administered to test animals. Distal femur metaphysis data presented in Tables 2 and 3 below are the results of formula I compound treatments compared to intact and ovariectomized test animals. Results are reported as the mean ± the standard error of the mean.

[3] = tested on: ovariectomized rats; design: species or system Sprague Dawley rats; conditions: rat, in vivo; for Uterine EPO (V. max): po
Excerpt: as §1, §2
Uteri were kept at 4° C until time of enzymatic analysis. The uteri were then homogenized in 50 volumes of 50 mM Tris buffer (pH - 8.0) containing 0.005% Triton X-100. Upon addition of 0.01% hydrogen peroxide and 10 mM O-phenylenediamine (final concentrations) in Tris buffer, increase in absorbance was monitored for one minute at 450 nm. The presence of eosonophils in the uterus is an indication of estrogenic activity of a compound. The maximal velocity of a 15 second interval was determined over the initial, linear portion of the reaction curve.

[4] = Rattus norvegicus, po, 96 h, daily for 4 days, read-out: Serum Cholesterol (% decrease vs. OVX)
[5] = Table 3, oral, dose 0.1 mg/kg, OVX control 6.2 ± 1.4, Sham 31.1 ± 6.3

SMILES	Uterine EPO (V. max) ([3]; 0.1 mg/kg)	Uterine EPO (V. max) ([3]; 1 mg/kg)	Uterine EPO (V. max) ([3]; 0.01 mg/kg)	inhibition in vivo at 0.1 mg/kg [1, 4] [%]	inhibition in vivo at 1 mg/kg [1, 4] [%]	inhibition in vivo at 0.01 mg/kg [1, 4] [%]	further results
C#C[C@]1(O)CC[C@H]2[C@@H]3CCc4cc(O)ccc4[C@H]3CC[C@@]21C [EE2, 17a-ethynyl estradiol, reference compound]	308.1			94.8			serum cholesterol compared to the ovariectomized control animals (in words) ([1]; oral, 4 days, EE2 at 0.1 mg/kg/day): caused a decrease in serum cholesterol; bone loss / femur density after ovariectomy (in words) ([2]; oral): prevented this loss; Distal Femur Metaphysis (X-ray Image Analysis-Gray Score) ([2]; Table 2, oral in 20% hydroxypropyl b-cyclodextrin, dose 0.1 mg/kg, OVX control 8.1 ± 1.8, Sham 27.2 ± 6.0): 11.5 ± 2.9∗; Distal Femur Metaphysis (X-ray Image Analysis-Gray Score) [2, 5]: 17.8 ± 3.5; eosinophil infiltration into the uterus (in words) [3]: substantial, expected increase in eosinophil infiltration
Oc1ccc(-c2sc3ccccc3c2Oc2ccc(OCCN3CCCCCC3)cc2)cc1 [Example 4, [3-[4-[2-(1-hexamethyleneimino)ethoxy]phenoxy]-2-(4-hydroxypbenyl)]benzo[b]thiophene]	3.9	4.8		53.7	62.1		inhibition in vivo at 10 mg/kg [1, 4]: 65.3%; Uterine EPO (V. max) ([3]; 10 mg/kg): 3.0
CCN(CC)CCOc1ccc(Oc2c(-c3ccc(O)cc3)sc3ccccc23)cc1 [Example 5, [3-[4-[2-(1-N,N-diethylamino)ethoxy]phenoxy]-2-(4-bydroxyphenyl)]benzo[b]thiophene]	7.2	54.6		67.2	67.7		inhibition in vivo at 10 mg/kg [1, 4]: 60.2%; Uterine EPO (V. max) ([3]; 10 mg/kg): 59.4
c1ccc(-c2sc3ccccc3c2Oc2ccc(OCCN3CCCCC3)cc2)cc1 [Example 7, [3-[4-[2-(1-piperidinyl)ethoxy]phenoxy]-2-(phenyl)]benzo [b]thiophene hydrochloride]	4.8	4.5		56.2	42.6		inhibition in vivo at 5 mg/kg ([1]; Rattus norvegicus, po, 96 h, daily for 4 days, dose 5.0 mg/kg, read-out: Serum Cholesterol (% decrease vs. OVX)): 29.5%; Uterine EPO (V. max) ([3]; 5 mg/kg): 4.8
Oc1ccc(-c2sc3cc(O)ccc3c2Oc2ccc(OCCN3CCCCC3)cc2)cc1 [Example 20, [6-hydroxy-3-[4-[2-(1-piperidinyl)ethoxy]-phenoxy]-2-(4-hydroxyphenyl)]benzo [b]thiophene hydrochloride]	3.0		0.9				inhibition in vivo at 0.05 mg/kg ([1]; Rattus norvegicus, po, 96 h, daily for 4 days, dose 0.05 mg/kg, read-out: Serum Cholesterol (% decrease vs. OVX)): 35.9%; Uterine EPO (V. max) ([3]; 0.05 mg/kg): 3.0
Oc1ccc(-c2sc3cc(O)ccc3c2Oc2ccc(OCCN3CCOCC3)cc2)cc1 [Example 24, [6-Hydroxy-3-[4-[2-(morpholino)ethoxy]phenoxy]-2-(4-hydroxyphenyl)]benzo[b]thiophene hydrochloride]	0.9	29.4	3.6	46.4	79.3	23.7	Distal Femur Metaphysis (X-ray Image Analysis-Gray Score) [2, 5]: 18.3 ± 2.6∗; Distal Femur Metaphysis (X-ray Image Analysis-Gray Score) ([2]; Table 3, oral, dose 1.0 mg/kg, OVX control 6.2 ± 1.4, Sham 31.1 ± 6.3): 19.6 ± 2.3∗; Distal Femur Metaphysis (X-ray Image Analysis-Gray Score) ([2]; Table 3, oral, dose 3.0 mg/kg, OVX control 6.2 ± 1.4, Sham 31.1 ± 6.3): 17.1 ± 5.5
CCN(CC)CCCOc1ccc(Oc2c(-c3ccc(O)cc3)sc3cc(O)ccc23)cc1 [Example 25, [6-Hydroxy-3-[4-[3-(1-N,N-diethylamino)propoxy]phenoxy]-2-(4-hydroxyphenyl)]benzo [b]thiophene hydrochloride]	3.3	36.0	3.0	67.6	73.9	13.1	

Now from value to molecule, other results behind:

Uterine EPO (V. max) ([3]; 0.1 mg/kg)	Uterine EPO (V. max) ([3]; 1 mg/kg)	Uterine EPO (V. max) ([3]; 0.01 mg/kg)	SMILES	inhibition in vivo at 0.1 mg/kg [1, 4] [%]	inhibition in vivo at 1 mg/kg [1, 4] [%]	inhibition in vivo at 0.01 mg/kg [1, 4] [%]	further results
29.1	175.1	4.8	CC(C)N(CCOc1ccc(Oc2c(-c3ccc(O)cc3)sc3cc(O)ccc23)cc1)C(C)C [Example 26, [6-Hydroxy-3-[4-[2-(1-N,N-diisopropylamino)-ethoxy]phenoxy]-2-(4-hydroxyphenyl)]benzo[b]thiophene hydrochloride]	45.2	62.7	29	
4.8	52.5	3.3	Oc1ccc(-c2sc3cc(O)ccc3c2Oc2ccc(OCCCN3CCCCC3)cc2)cc1 [Example 27, [6-Hydroxy-3-[4-[3-(piperidino)propoxy]phenoxy]-2-(4-hydroxyphenyl)]benzo[b]thiophene hydrochloride]	50.8	76.5	12.2	
4.8	6.0	3.3	O=C(Oc1ccc(-c2sc3cc(OC(=O)c4ccccc4)ccc3c2Oc2ccc(OCCN3CCCCC3)cc2)cc1)c1ccccc1 [Example 43, [6-Benzoyloxy-3-[4-[2-(1-piperidinyl)-ethoxy]phenoxy]-2-(4-benzoyloxyphenyl)]benzo[b]thiophene hydrochloride]	43.8	39.4	9.2	
88.5	94.5	3.6	CCS(=O)(=O)Oc1ccc(-c2sc3cc(OS(=O)(=O)CC)ccc3c2Oc2ccc(OCCN3CCCCC3)cc2)cc1 [Example 44, [6-Ethylsulfonyloxy-3-[4-[2-(1-piperidinyl)ethoxy]-phenoxy]-2-(4-ethylsulfonyloxyphenyl)] benzo[b]thiophene hydrochloride]	43.8	67.4	12.6	
